IC50 data for 36 compounds are collected here from patent US12129237B2, “Substituted diaminocarboxamide and diaminocarbonitrile pyrimidines, compositions thereof, and methods of treatment therewith” (SIGNAL PHARMACEUTICALS, LLC, priority 2011, dated 2024).

Where two headings read alike, the source gives them in different places. A value given as a limit tells only on which side of the number the result lay.

The assay has as its target T1, JNK1 (Homo sapiens, UniProt P45983).
T1 construct: purchased Carna Biosciences
In words: JNK1 biochemical assays (one or more of: time resolved fluorescence, Z'-LYTE Cascade, radioactive).

Setting [1] is: tested in one or more of the JNK1 biochemical assays, read-out: Act. Level (JNK1 biochemical assay IC50 activity level).
Setting [2] is: one or more of the JNK1 biochemical assays, read-out: Act. Level (JNK1 IC50 activity level).
Setting [3] is: Table 3, JNK1 IC50 activity level, read-out: Act. Level.
Setting [4] is: Table 2, JNK1 IC50 activity level, read-out: Act. Level.

T1 sequence (P45983 whole entry): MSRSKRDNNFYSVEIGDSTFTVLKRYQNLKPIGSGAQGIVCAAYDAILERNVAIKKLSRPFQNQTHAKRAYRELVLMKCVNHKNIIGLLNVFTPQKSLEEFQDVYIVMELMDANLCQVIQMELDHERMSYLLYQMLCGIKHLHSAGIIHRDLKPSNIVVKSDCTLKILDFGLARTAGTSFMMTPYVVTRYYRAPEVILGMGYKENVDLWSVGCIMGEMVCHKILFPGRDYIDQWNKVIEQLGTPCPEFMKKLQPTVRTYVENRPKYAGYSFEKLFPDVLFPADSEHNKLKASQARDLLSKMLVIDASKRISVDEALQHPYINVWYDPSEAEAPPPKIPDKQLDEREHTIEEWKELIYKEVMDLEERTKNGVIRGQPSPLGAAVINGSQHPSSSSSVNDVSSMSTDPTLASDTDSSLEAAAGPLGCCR

On to `CCO[C@H]1CC[C@H](Nc2ncc(C(N)=O)c(NC[C@H](C)O)n2)CC1` [Example A-102, 2-((1r,4S)-4-ethoxycyclohexylamino)-4-((S)-2-hydroxypropylamino)pyrimidine-5-carboxamide], for which the IC50 under setting [1] is less than 200 nM.

Turning to `CCO[C@H]1CC[C@H](Nc2ncc(C(N)=O)c(NC34CC(C)(C3)C4)n2)CC1` [Example 443, 2-((1r,4r)-4-ethoxycyclohexylamino)-4-(3-methylbicyclo[1.1.1]pentan-1-ylamino)pyrimidine-5-carboxamide], the IC50 under setting [2] was less than 200 nM.

Take `NC(=O)c1cnc(N[C@H]2CC[C@H](O)CC2)nc1N[C@@H]1CCCOC1` [Example A-193, 2-((1r,4R)-4-hydroxycyclohexylamino)-4-((R)-tetrahydro-2H-pyran-3-ylamino)pyrimidine-5-carboxamide]: under setting [1], the IC50 is less than 200 nM.

As for `CCO[C@H]1CC[C@@H](Nc2nc(NC3CCN(C(=O)CC)CC3)ncc2C(N)=O)CC1` [Example A-113, 4-((1s,4s)-4-ethoxycyclohexylamino)-2-(1-propionylpiperidin-4-ylamino)pyrimidine-5-carboxamide], the IC50 under setting [1] was less than 200 nM.

As for `CC(C)(CO)Nc1nc(N[C@H]2CC[C@H](O)CC2)ncc1C(N)=O` [Example 311, 4-(1-hydroxy-2-methylpropan-2-ylamino)-2-((1r,4r)-4-hydroxycyclohexylamino)pyrimidine-5-carboxamide], the IC50 under setting [2] is less than 200 nM.

Consider `CC(C)(Nc1nc(N[C@H]2CC[C@H](OC3CC3)CC2)ncc1C(N)=O)C1CC1` [Example 483, 2-((1r,4r)-4-cyclopropoxycyclohexylamino)-4-(2-cyclopropylpropan-2-ylamino)pyrimidine-5-carboxamide], for which the IC50 under setting [2] was less than 200 nM.

As for `N#Cc1cnc(N[C@H]2CC[C@H](O)CC2)nc1N[C@@H]1CCCC[C@@H]1O` [Example C-31, 4-((1R,2S)-2-hydroxycyclohexylamino)-2-((1r,4R)-4-hydroxycyclohexylamino) pyrimidine-5-carbonitrile], the IC50 under setting [3] is 200 to 800 nM.

Regarding `CO[C@H]1CC[C@@H](Nc2nc(N[C@H]3CC[C@H](O)CC3)ncc2C(N)=O)CC1` [Example A-100, 2-((1r,4r)-4-hydroxycyclohexylamino)-4-((1s,4s)-4-methoxycyclohexylamino)pyrimidine-5-carboxamide], the IC50 under setting [1] was less than 200 nM.

Consider `CC(C)(Nc1nc(N[C@H]2CC[C@H](O)CC2)ncc1C(N)=O)C1CC1` [Example 316, 4-(2-cyclopropylpropan-2-ylamino)-2-((1r,4r)-4-hydroxycyclohexylamino)pyrimidine-5-carboxamide], for which, under setting [2], the IC50 is less than 200 nM.

Take `COC[C@H]1CC[C@@H](Nc2nc(N[C@H]3CC[C@H](O)CC3)ncc2C(N)=O)CC1` [Example A-109, 2-((1r,4r)-4-hydroxycyclohexylamino)-4-((1s,4s)-4-(methoxymethyl)cyclohexylamino)pyrimidine-5-carboxamide]: the IC50 under setting [1] is less than 200 nM.

Regarding `CC(CNc1ncc(C(N)=O)c(Nc2ccccc2)n1)c1ccccc1` (stereo not drawn) [Example B-72, 4-(phenylamino)-2-(2-phenylpropylamino)pyrimidine-5-carboxamide], under setting [4], the IC50 is 200 to 800 nM.

For `C[C@@H]1CC[C@@H](Nc2nc(N[C@H]3CCc4ncccc4C3)ncc2C(N)=O)C[C@H]1O` [Example B-93, 4-((1R,3R,4R)-3-hydroxy-4-methylcyclohexylamino)-2-((S)-5,6,7,8-tetrahydroquinolin-6-ylamino)pyrimidine-5-carboxamide], under setting [4], the IC50 was less than 200 nM.

In the case of `CC(C)CNc1ncc(C(N)=O)c(N[C@@H]2CCC[C@H](O)C2)n1` [Example 495, 4-((1R,3S)-3-hydroxycyclohexylamino)-2-(isobutylamino)pyrimidine-5-carboxamide], the IC50 under setting [2] is less than 200 nM.

Consider `CCO[C@H]1CC[C@H](Nc2ncc(C(N)=O)c(N[C@H]3CCCOC3)n2)CC1` [Example A-60, 2-((1r,4S)-4-ethoxycyclohexylamino)-4-((S)-tetrahydro-2H-pyran-3-ylamino)pyrimidine-5-carboxamide], for which the IC50 under setting [1] is less than 200 nM.

As to `C[C@@H]1CC[C@@H](Nc2nc(NC3CC(F)(F)C3)ncc2C(N)=O)C[C@H]1O` [Example 444, 2-(3,3-difluorocyclobutylamino)-4-((1R,3R,4R)-3-hydroxy-4-methylcyclohexylamino)pyrimidine-5-carboxamide], the IC50 under setting [2] was less than 200 nM.

On to `C[C@@H](Nc1nc(NC2CCOCC2)ncc1C(N)=O)C1CC1` [Example 424, (R)-4-(1-cyclopropylethylamino)-2-(tetrahydro-2H-pyran-4-ylamino)pyrimidine-5-carboxamide], for which the IC50 under setting [2] was less than 200 nM.

`C[C@@H]1CC[C@@H](Nc2nc(N[C@H](C)C(C)(C)C)ncc2C(N)=O)C[C@H]1O` [Example 461, 2-((R)-3,3-dimethylbutan-2-ylamino)-4-((1R,3R,4R)-3-hydroxy-4-methylcyclohexylamino)pyrimidine-5-carboxamide]: the IC50 under setting [2] is less than 200 nM.

In the case of `CO[C@H]1CC[C@H](Nc2ncc(C(N)=O)c(NC(C)(C)C(C)C)n2)CC1` [Example 274, 4-(2,3-dimethylbutan-2-ylamino)-2-((1r,4r)-4-methoxycyclohexylamino)pyrimidine-5-carboxamide], the IC50 under setting [2] was less than 200 nM.

Regarding `CO[C@H]1CC[C@H](Nc2ncc(C(N)=O)c(N[C@H](C)C(C)C)n2)CC1` [Example 291, 2-((1r,4R)-4-methoxycyclohexylamino)-4-((R)-3-methylbutan-2-ylamino)pyrimidine-5-carboxamide], the IC50 under setting [2] was less than 200 nM.

Turning to `C[C@H](Nc1ncc(C(N)=O)c(N[C@H]2CC[C@@H](O)CC2)n1)C1CCCCC1` [Example A-125, 2-((S)-1-cyclohexylethylamino)-4-((1s,4R)-4-hydroxycyclohexylamino)pyrimidine-5-carboxamide], the IC50 under setting [1] is less than 200 nM.

Take `NC(=O)c1cnc(NC2CCC2)nc1N[C@H]1CC[C@@H](C(=O)NC2CC2)CC1` [Example A-132, 2-(cyclobutylamino)-4-((1s,4s)-4-(cyclopropylcarbamoyl)cyclohexylamino)pyrimidine-5-carboxamide]: the IC50 under setting [1] was in the range of 1000 to 10000 nM.

On to `CC1(Nc2ncc(C(N)=O)c(N[C@@H]3CCC[C@H](O)C3)n2)CC1` [Example 438, 4-((1R,3S)-3-hydroxycyclohexylamino)-2-(1-methylcyclopropylamino)pyrimidine-5-carboxamide], for which the IC50 under setting [2] was less than 200 nM.

On to `CC(C)(C)Nc1ncc(C(N)=O)c(N[C@@H]2CCC[C@H]2CO)n1` [Example 330, 2-(tert-butylamino)-4-((1R,2R)-2-(hydroxymethyl)cyclopentylamino)pyrimidine-5-carboxamide], for which the IC50 under setting [2] is less than 200 nM.

For `CC[C@H](C)Nc1nc(N[C@H]2CC[C@H](O)CC2)ncc1C(N)=O` [Example A-195, 4-(sec-butylamino)-2-((1r,4S)-4-hydroxycyclohexylamino)pyrimidine-5-carboxamide], the IC50 under setting [1] was less than 200 nM.

As for `CO[C@H]1CC[C@H](Nc2ncc(C(N)=O)c(NC(C)(C)CCO)n2)CC1` [Example A-35, 4-(4-hydroxy-2-methylbutan-2-ylamino)-2-((1r,4r)-4-methoxycyclohexylamino)pyrimidine-5-carboxamide], the IC50 under setting [1] was less than 200 nM.

On to `NC(=O)c1cnc(NCC2CCCCC2)nc1Nc1ccccc1` [Example B-49, 2-(cyclohexylmethylamino)-4-(phenylamino)pyrimidine-5-carboxamide], for which the IC50 under setting [4] is 200 to 800 nM.

As to `CC1(Nc2ncc(C(N)=O)c(NC3CCC(C)(C)C(O)C3)n2)CC1` (stereo not drawn) [Example 431, 4-(3-hydroxy-4,4-dimethylcyclohexylamino)-2-(1-methylcyclopropylamino)pyrimidine-5-carboxamide], under setting [2], the IC50 was less than 200 nM.

`CC1(C)CCC(Nc2nc(NC34CC(C3)C4)ncc2C(N)=O)CC1O` (stereo not drawn) [Example 427, 2-(bicyclo[1.1.1]pentan-1-ylamino)-4-(3-hydroxy-4,4-dimethylcyclohexylamino)pyrimidine-5-carboxamide]: under setting [2], the IC50 fell in the range of 200 to 800 nM.

Regarding `CC1(Nc2ncc(C(N)=O)c(N[C@@H]3CCC[C@H](O)C3)n2)CCOCC1` [Example A-151, 4-((1R,3S)-3-hydroxycyclohexylamino)-2-(4-methyltetrahydro-2H-pyran-4-ylamino)pyrimidine-5-carboxamide], the IC50 under setting [1] is less than 200 nM.

In the case of `CC(C)Nc1nc(N[C@@H]2CCC[C@H](O)CC2)ncc1C(N)=O` [Example 234, 2-((1R,4S)-4-hydroxycycloheptylamino)-4-(isopropylamino)pyrimidine-5-carboxamide], under setting [2], the IC50 was less than 200 nM.

With `CCO[C@H]1CC[C@H](Nc2ncc(C(N)=O)c(NC3CCC[C@H](O)C3)n2)CC1` (stereo partly drawn) [Example A-58, 2-((1r,4R)-4-ethoxycyclohexylamino)-4-((1R,3S)-3-hydroxycyclohexylamino)pyrimidine-5-carboxamide], the IC50 under setting [1] was less than 200 nM.

Regarding `CC(C)(C)Nc1nc(NC2CCCC(O)CC2)ncc1C(N)=O` (stereo not drawn) [Example 251, 4-(tert-butylamino)-2-(4-hydroxycycloheptylamino)pyrimidine-5-carboxamide], the IC50 under setting [2] was less than 200 nM.

As to `CC(C)Nc1ncc(C(N)=O)c(N[C@@H]2CCC[C@H](O)C2)n1` [Example A-51, 4-((1R,3S)-3-hydroxycyclohexylamino)-2-(isopropylamino)pyrimidine-5-carboxamide], the IC50 under setting [1] was less than 200 nM.

Regarding `CO[C@H]1CC[C@H](Nc2ncc(C#N)c(N[C@@H]3CCC[C@H](O)C3)n2)CC1` [Example C-4, 4-((1R,3S)-3-hydroxycyclohexylamino)-2-((1r,4R)-4-methoxycyclohexylamino) pyrimidine-5-carbonitrile], under setting [3], the IC50 is less than 200 nM.

Regarding `CO[C@H]1CC[C@H](Nc2ncc(C(N)=O)c(N[C@H]3CCC[C@@H]3O)n2)CC1` [Example A-91, 4-((1S,2S)-2-hydroxycyclopentylamino)-2-((1r,4S)-4-methoxycyclohexylamino)pyrimidine-5-carboxamide], the IC50 under setting [1] was less than 200 nM.

In the case of `CC1(Nc2nc(N[C@H]3CC[C@H](O)CC3)ncc2C(N)=O)CCC1` [Example 239, 2-((1r,4r)-4-hydroxycyclohexylamino)-4-(1-methylcyclobutylamino)pyrimidine-5-carboxamide], the IC50 under setting [2] was less than 200 nM.
